Test results from patent publication US8962648B2, “Tricyclic compounds and PBK inhibitors containing the same” (OncoTherapy Science, Inc., priority 2010, dated 2015).
Counter-ions that a name gives are not always drawn. Like-named read-outs stand apart in the source and are kept apart here.

What was measured:
[1] = test system: HT-1197 cells; assay: Cell-based assay, cellular growth (Cell Counting Kit-8, 72 hours), PBK-negative control cells
Protocol: (§1) 100 micro-L of cell suspension was seeded onto 96-well microtiter plate (ViewPlate-96FTC, PerkinElmer). […] Cellular growth was determined using Cell Counting Kit-8 (DOJINDO) at 72 hours after the exposure of the candidate inhibitors. […] Accurate IC50 values were calculated as described previously.

[2] = test system: 22Rv1 cells; assay: Cell-based assay, cellular growth (Cell Counting Kit-8, 72 hours); settings: Homo sapiens
[3] = test system: T47D cells; assay: as above
Protocol: as §1

[4] = test system: A549 cells; assay: as above
Protocol: as §1

[5] = test system: BT-549 cells; assay: as above; settings: Homo sapiens, BT549 cells
Protocol: as §1

[6] = target: PBK (Homo sapiens (Human), UniProt Q96KB5); assay: Kinase assay (IMAP fluorescence polarization, FITC-labeled histone H3 peptide); assay type: biochemical
PBK, sequence (Q96KB5 whole entry): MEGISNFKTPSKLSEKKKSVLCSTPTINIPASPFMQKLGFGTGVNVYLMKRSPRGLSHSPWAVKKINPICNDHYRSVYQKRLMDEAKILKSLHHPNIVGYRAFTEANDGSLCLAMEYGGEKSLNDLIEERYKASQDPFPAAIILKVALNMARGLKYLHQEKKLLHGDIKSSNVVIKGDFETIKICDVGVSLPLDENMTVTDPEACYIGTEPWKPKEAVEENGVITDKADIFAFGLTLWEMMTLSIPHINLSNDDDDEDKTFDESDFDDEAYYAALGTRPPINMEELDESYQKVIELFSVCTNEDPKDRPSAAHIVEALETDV
Protocol: PBK activity was determined in the presence or absence of compounds using fluorescein isothiocyanate-labeled (FITC-labeled) histone H3 peptide as a substrate. […] The serially diluted compounds, 0.8 ng/micro-L PBK (Carna Biosciences) and 100 nM FITC-labeled histone H3 peptide were reacted in a reaction buffer (20 mM HEPES, 0.01% Tween-20, 0.3 mM MgCl2, 2 mM dithiothreitol, 50 micro-M ATP, pH 7.4) at room temperature for 1 hour. The reaction was stopped by the addition of three fold assay volume of progressive binding solution. […] IC50 values were calculated by nonlinear four parameter fit using SigmaPlot, version 10.0 (Systat Software, Inc.).

[7] = PBK 0.8 ng/micro-L, 50 micro-M ATP, 100 nM FITC-labeled histone H3 peptide, room temperature 1 hour

| IC50 [2] | IC50 ([3]; Homo sapiens, T47D, 72 h) | IC50 ([4]; Homo sapiens, A549, 72 h) | IC50 [5] | IC50 [6, 7] | IC50 ([3]; hydrobromide) | IC50 ([4]; hydrobromide) | IC50 ([6]; PBK 0.8 ng/micro-L, 50 micro-M ATP, 100 nM FITC-labeled histone H3 peptide, room temperature 1 hour, hydrobromide) | IC50 ([6]; PBK 0.8 ng/micro-L, 50 micro-M ATP, 100 nM FITC-labeled histone H3 peptide, room temperature 1 hour, hydrochloride) | SMILES | IC50 ([1]; Homo sapiens, HT1197, 72 h) | IC50 [6] | IC50 ([1]; HT1197 cells (PBK-negative control), hydrobromide) |
| --- | --- | --- | --- | --- | --- | --- | --- | --- | --- | --- | --- | --- |
| 69 nM | 57 nM | 56 nM | 54 nM | 0.64 nM | – | – | – | – | C[C@@H](CN)c1ccc(-c2c(O)ccc3[nH]c(=O)c4sccc4c23)cc1 [Compound 1160, (R)-9-(4-(1-aminopropan-2-yl)phenyl)-8-hydroxythieno[2,3-c]quinolin-4(5H)-one hydrochloride] | 230 nM | – | – |
| 22 nM | 24 nM | 23 nM | 13 nM | – | – | – | – | – | Cc1cc(O)c(-c2ccc([C@@H](C)CN)cc2)c2c1[nH]c(=O)c1sccc12 [Compound 1169, (R)-9-(4-(1-aminopropan-2-yl)phenyl)-8-hydroxy-6-methylthieno[2,3-c]quinolin-4(5H)-one hydrobromide] | – | – | – |
| – | 74 nM | 110 nM | 47 nM | 20 nM | – | – | – | – | Cc1cc(O)c(-c2ccc(C(CN)C(C)C)c(F)c2)c2c1[nH]c(=O)c1sccc12 (stereo not shown) [Compound 1288, 9-(4-(1-amino-3-methylbutan-2-yl)-3-fluorophenyl)-8-hydroxy-6-methylthieno[2,3-c]quinolin-4(5H)-one] | 140 nM | – | – |
| – | 180 nM | 78 nM | 85 nM | 17 nM | – | – | – | – | CNCC(c1ccc(-c2c(O)cc(C)c3[nH]c(=O)c4sccc4c23)cc1F)C(C)C (stereo not shown) [Compound 1294, 9-(3-fluoro-4-(3-methyl-1-(methylamino)butan-2-yl)phenyl)-8-hydroxy-6-methylthieno[2,3-c]quinolin-4(5H)-one] | 340 nM | – | – |
| – | 140 nM | 68 nM | 64 nM | 32 nM | – | – | – | – | CNC[C@H](C)c1ccc(-c2c(OC)cc(C)c3[nH]c(=O)c4sccc4c23)cc1 [Compound 1298, (R)-8-methoxy-6-methyl-9-(4-(1-(methylamino)propan-2-yl)phenyl)thieno[2,3-c]quinolin-4(5H)-one hydrochloride] | 160 nM | – | – |
| – | 830 nM | 970 nM | 740 nM | 75 nM | – | – | – | – | Cc1cc(O)c(-c2ccc(C3CCCNC3)cc2)c2c1[nH]c(=O)c1sccc12 (stereo not shown) [Compound 1302, 8-hydroxy-6-methyl-9-(4-(piperidin-3-yl)phenyl)thieno[2,3-c]quinolin-4(5H)-one hydrochloride] | 1500 nM | – | – |
| – | 130 nM | 92 nM | 81 nM | 14 nM | – | – | – | – | Cc1cc(O)c(-c2ccc([C@H](C)CN)c(F)c2)c2c1[nH]c(=O)c1sccc12 [Compound 1303, (S)-9-(4-(1-aminopropan-2-yl)-3-fluorophenyl)-8-hydroxy-6-methylthieno[2,3-c]quinolin-4(5H)-one] | 510 nM | – | – |
| – | 40 nM | 20 nM | 21 nM | 15 nM | – | – | – | – | COc1cc(C)c2[nH]c(=O)c3sccc3c2c1-c1ccc([C@@H](C)CN)cc1 [Compound 1305, (R)-9-(4-(1-aminopropan-2-yl)phenyl)-8-methoxy-6-methylthieno [2,3-c]quinolin-4(5H)-one hydrochloride] | 64 nM | – | – |
| – | – | – | 42 nM | – | 85 nM | 57 nM | 18 nM | – | CNC[C@H](C)c1ccc(-c2c(O)cc(C)c3[nH]c(=O)c4sccc4c23)cc1 [Compound 1307, (R)-8-hydroxy-6-methyl-9-(4-(1-(methylamino)propan-2-yl)phenyl)thieno [2,3-c]quinolin-4(5H)-one hydrobromide] | – | – | 150 nM |
| – | 15 nM | 15 nM | 8.4 nM | – | – | – | – | 3.6 nM | Cc1cc(O)c(-c2ccc([C@@H](C)CN)c(F)c2)c2c1[nH]c(=O)c1sccc12 [Compound 1318, (R)-9-(4-(1-aminopropan-2-yl)-3-fluorophenyl)-8-hydroxy-6-methylthieno[2,3-c]quinolin-4(5H)-one hydrochloride] | 63 nM | – | – |
| – | 260 nM | 100 nM | 110 nM | 43 nM | – | – | – | – | C[C@@H](CN(C)C)c1ccc(-c2c(O)cc(Cl)c3[nH]c(=O)c4sccc4c23)cc1 [Compound 1347, (R)-6-chloro-9-(4-(1-(dimethylamino)propan-2-yl)phenyl)-8-hydroxythieno [2,3-c]quinolin-4(5H)-one hydrochloride] | 260 nM | – | – |
| – | 99 nM | 55 nM | 71 nM | 40 nM | – | – | – | – | CC[C@@H](CN)c1ccc(-c2c(O)cc(C)c3[nH]c(=O)c4sccc4c23)cc1 [Compound 1352, (R)-9-(4-(1-aminobutan-2-yl)phenyl)-8-hydroxy-6-methylthieno[2,3-c]quinolin-4(5H)-one hydrochloride] | 340 nM | – | – |
| – | 300 nM | 270 nM | 260 nM | 55 nM | – | – | – | – | CNCCc1ccc(-c2c(O)cc(C)c3[nH]c(=O)c4sccc4c23)cc1 [Compound 1364, 8-hydroxy-6-methyl-9-(4-(2-(methylamino)ethyl)phenyl)thieno[2,3-c]quinolin-4(5H)-one hydrochloride] | 660 nM | – | – |

| SMILES | IC50 [2] | IC50 ([3]; Homo sapiens, T47D, 72 h) | IC50 ([4]; Homo sapiens, A549, 72 h) | IC50 [5] | IC50 [6, 7] | IC50 ([3]; hydrobromide) | IC50 ([4]; hydrobromide) | IC50 ([6]; PBK 0.8 ng/micro-L, 50 micro-M ATP, 100 nM FITC-labeled histone H3 peptide, room temperature 1 hour, hydrobromide) | IC50 ([6]; PBK 0.8 ng/micro-L, 50 micro-M ATP, 100 nM FITC-labeled histone H3 peptide, room temperature 1 hour, hydrochloride) | IC50 ([1]; Homo sapiens, HT1197, 72 h) | IC50 [6] | IC50 ([1]; HT1197 cells (PBK-negative control), hydrobromide) |
| --- | --- | --- | --- | --- | --- | --- | --- | --- | --- | --- | --- | --- |
| CNCC(C)c1ccc(-c2c(OC)cc(C)c3[nH]c(=O)c4sccc4c23)cc1F (stereo not shown) [Compound 1286, 9-(3-fluoro-4-(1-(methylamino)propan-2-yl)phenyl)-8-methoxy-6-methylthieno[2,3-c]quinolin-4(5H)-one hydrochloride] | – | 220 nM | 95 nM | 93 nM | – | – | – | – | – | 220 nM | 43 nM | – |
| CNCC(C)c1ccc(-c2c(O)cc(C)c3[nH]c(=O)c4sccc4c23)cc1F (stereo not shown) [Compound 1293, 9-(3-fluoro-4-(1-(methylamino)propan-2-yl)phenyl)-8-hydroxy-6-methylthieno[2,3-c]quinolin-4(5H)-one] | – | 52 nM | 35 nM | 32 nM | 8.9 nM | – | – | – | – | 190 nM | – | – |
| COc1cc(C)c2[nH]c(=O)c3sccc3c2c1-c1ccc([C@H](C)CN)c(F)c1 [Compound 1310, (S)-9-(4-(1-aminopropan-2-yl)-3-fluorophenyl)-8-methoxy-6-methylthieno[2,3-c]quinolin-4(5H)-one hydrochloride] | – | 800 nM | 370 nM | 400 nM | – | – | – | – | – | 890 nM | 54 nM | – |
| Cc1cc(O)c(-c2ccc([C@@H](C)CN(C)C)c(F)c2)c2c1[nH]c(=O)c1sccc12 [Compound 1311, (R)-9-(4-(1-(dimethylamino)propan-2-yl)-3-fluorophenyl)-8-hydroxy-6-methylthieno[2,3-c]quinolin-4(5H)-one hydrochloride] | – | 70 nM | 45 nM | 37 nM | – | – | – | – | – | 110 nM | 17 nM | – |
| CNC[C@H](C)c1ccc(-c2c(O)cc(C)c3[nH]c(=O)c4sccc4c23)cc1F [Compound 1315, (R)-9-(3-fluoro-4-(1-(methylamino)propan-2-yl)phenyl)-8-hydroxy-6-methylthieno[2,3-c]quinolin-4(5H)-one hydrochloride] | – | 41 nM | 34 nM | 24 nM | – | – | – | – | – | 100 nM | 8.1 nM | – |
| CNC[C@H](C)c1ccc(-c2c(OC)cc(C)c3[nH]c(=O)c4sccc4c23)cc1F [Compound 1316, (R)-9-(3-fluoro-4-(1-(methylamino)propan-2-yl)phenyl)-8-methoxy-6-methylthieno[2,3-c]quinolin-4(5H)-one hydrochloride] | – | 160 nM | 86 nM | 83 nM | – | – | – | – | – | 230 nM | 33 nM | – |
| COc1cc(C)c2[nH]c(=O)c3sccc3c2c1-c1ccc([C@@H](C)CN)c(F)c1 [Compound 1317, (R)-9-(4-(1-aminopropan-2-yl)-3-fluorophenyl)-8-methoxy-6-methylthieno[2,3-c]quinolin-4(5H)-one hydrochloride] | – | 72 nM | 42 nM | 36 nM | – | – | – | – | – | 100 nM | 22 nM | – |
